Experimental data reported in paper PMC10178848, “Modulating fast skeletal muscle contraction protects skeletal muscle in animal models of Duchenne muscular dystrophy” (The Journal of Clinical Investigation, 2023).
pIC50: −log10 of the molar value.

Legend:
mouse TA myofibrils = test: Myofibril ATPase, mouse TA; format: biochemical; settings: mixed IIa, IIx, IIb
Human Bicep myofibrils = test: Myofibril ATPase, human bicep; format: biochemical
Method: Myofibrils were prepared from various animals and tissues: rabbit psoas muscle and porcine cardiac muscle were purchased from Pel-Freez Biologicals. Human bicep and soleus muscle were purchased from BioIVT, and neonatal rat muscle was obtained in house. All myofibrils were prepared using published methods ([21]).
A lactate dehydrogenase/pyruvate kinase enzyme-coupled system ([62]) was used to monitor ATP hydrolysis rates in various muscle preparations. Rabbit psoas myofibrils were used for high-throughput screening at pCa 6.25 at 0.25 mg/mL. A multidrop cassette (Thermo Fisher Scientific) dispensed 10 μL of the coupled enzyme system, calcium, and myofibrils to 10 μL ATP, NADH and PEP to initiate the reaction prior to reading on a plate reader (Envision, Perkin Elmer) for 10 minutes per plate at room temperature. Hits were reconfirmed, and secondary assays were used to evaluate selectivity, including bovine cardiac myofibrils (pCa 5.86) and enzyme coupled hits with a hexokinase screen (Sigma-Aldrich).

[1] = molecular target: 78 proteins, including GPCR, ion channel, kinases, nuclear hormone receptors, and transporters; test: SAFETYscan E/IC50 ELECT off-target panel (whole panel); settings: read-out: IC50 in all SAFETYscan assays
Method: (§1) The specificity of EDG-5506 for fast skeletal myosin over other, unrelated proteins was confirmed using two off-target binding and activity screens. […] A second off-target panel (SAFETYscan E/IC50 ELECT, Eurofins DiscoverX) tested in vitro enzyme activity against 78 proteins, including GPCR, ion channel, kinases, nuclear hormone receptors, and transporters. In all assays, the IC50 of EDG-5506 was more than 10 μM (Supplemental Data File 1).

[2] = system: EDL muscles from mdx mice; test: Ex vivo eccentric (lengthening) contraction injury, mdx EDL; set-up: species or system mouse
Method: Isometric force was measured ex vivo in mouse EDL and soleus muscle. EDL muscle eccentric injury was based on published protocols ([30]), with degree of lengthening and stimulation modified to yield a uniform drop in mdx isometric and peak force over 10 contractions. After isolation, muscle was mounted via 5-0 suture to a combination servomotor/force transducer (300C-LR, Aurora) between 2 electrodes connected to a stimulator (701C, Aurora) in Ringers solution at 27°C with continuously infused CO2/O2 gas mixture. Experiments were recorded with custom MATLAB software via a National Instruments PCIe-6321 board and 2090A BNC connector. Muscles were preincubated for 60 minutes with DMSO (final 0.1%)/compound before 10 eccentric contractions, 1 minute apart, with 100 milliseconds of isometric stimulation at 100 Hz and active lengthening of 0.1 L0 at a rate of 2 L0/s. After lengthening, muscles were held at 1.1 L0 with stimulation for 100 milliseconds (Supplemental Figure 2A).

mdx mice = test: Plasma CK activity in mice; format: in vivo, mouse
Method: Plasma from mice and dogs were analyzed for CK activity using standard protocols (Pointe Scientific, Thermo Fisher Scientific).

healthy mice, TA muscle = test: Cardiotoxin sterile muscle injury repair; format: in vivo, mouse; settings: day 8 post injury
Method: For sterile muscle injury, mice were anesthetized with isoflurane and 50 μL cardiotoxin (12 × 10^–6 M, 217503, Millipore) injected in the TA muscle. Muscles 8 days after injury were snap frozen in nitrogen-chilled isopentane. 8 μm cryosections were cut and stained with H&E. For each analysis, more than 10 slides (per condition/group) containing 6 muscle sections/sample were used, and myofibers in the injured area were counted and measured with a Mirax digital scanner and HALO software ([68]). For adult mouse studies, muscles were fixed in 10% formalin and embedded in paraffin for sectioning. Laminin staining (RB-082, Thermo Fisher Scientific) was used to outline fibers, and picrosirius red was used for collagen accumulation. Image analysis was performed using ImarisX64 software (Bitplane AG), and fiber sizing was calculated using minimal Feret’s diameter ([69]). For after weaning juvenile mouse studies, cryosections from soleus muscles were mounted in ProLong antifade mountant with DAPI (Thermo Fisher Scientific). Fiber type, size, and central nucleation were quantified with analysis via SMASH ([70]) and ImageJ (NIH). Antibodies used were mouse anti-MHC2A (1:50, SC-71, Developmental Studies Hybridoma Bank) and mouse anti-eMHC (1:10, BF-45, Developmental Studies Hybridoma Bank).

CSF1R = molecular target: T1, CSF1R (Homo sapiens, UniProt P07333); test: KINOMEscan scanEDGE; format: binding; settings: 20 uM
T1 construct: purchased Eurofins DiscoverX (KINOMEscan; SAFETYscan E/IC50 ELECT)

INSR = molecular target: T2, INSR (Homo sapiens, UniProt P06213); test: KINOMEscan scanEDGE; format: binding; settings: 20 uM
T2 construct: purchased Eurofins DiscoverX (KINOMEscan; SAFETYscan E/IC50 ELECT)
T2 sequence (P06213 28-1382): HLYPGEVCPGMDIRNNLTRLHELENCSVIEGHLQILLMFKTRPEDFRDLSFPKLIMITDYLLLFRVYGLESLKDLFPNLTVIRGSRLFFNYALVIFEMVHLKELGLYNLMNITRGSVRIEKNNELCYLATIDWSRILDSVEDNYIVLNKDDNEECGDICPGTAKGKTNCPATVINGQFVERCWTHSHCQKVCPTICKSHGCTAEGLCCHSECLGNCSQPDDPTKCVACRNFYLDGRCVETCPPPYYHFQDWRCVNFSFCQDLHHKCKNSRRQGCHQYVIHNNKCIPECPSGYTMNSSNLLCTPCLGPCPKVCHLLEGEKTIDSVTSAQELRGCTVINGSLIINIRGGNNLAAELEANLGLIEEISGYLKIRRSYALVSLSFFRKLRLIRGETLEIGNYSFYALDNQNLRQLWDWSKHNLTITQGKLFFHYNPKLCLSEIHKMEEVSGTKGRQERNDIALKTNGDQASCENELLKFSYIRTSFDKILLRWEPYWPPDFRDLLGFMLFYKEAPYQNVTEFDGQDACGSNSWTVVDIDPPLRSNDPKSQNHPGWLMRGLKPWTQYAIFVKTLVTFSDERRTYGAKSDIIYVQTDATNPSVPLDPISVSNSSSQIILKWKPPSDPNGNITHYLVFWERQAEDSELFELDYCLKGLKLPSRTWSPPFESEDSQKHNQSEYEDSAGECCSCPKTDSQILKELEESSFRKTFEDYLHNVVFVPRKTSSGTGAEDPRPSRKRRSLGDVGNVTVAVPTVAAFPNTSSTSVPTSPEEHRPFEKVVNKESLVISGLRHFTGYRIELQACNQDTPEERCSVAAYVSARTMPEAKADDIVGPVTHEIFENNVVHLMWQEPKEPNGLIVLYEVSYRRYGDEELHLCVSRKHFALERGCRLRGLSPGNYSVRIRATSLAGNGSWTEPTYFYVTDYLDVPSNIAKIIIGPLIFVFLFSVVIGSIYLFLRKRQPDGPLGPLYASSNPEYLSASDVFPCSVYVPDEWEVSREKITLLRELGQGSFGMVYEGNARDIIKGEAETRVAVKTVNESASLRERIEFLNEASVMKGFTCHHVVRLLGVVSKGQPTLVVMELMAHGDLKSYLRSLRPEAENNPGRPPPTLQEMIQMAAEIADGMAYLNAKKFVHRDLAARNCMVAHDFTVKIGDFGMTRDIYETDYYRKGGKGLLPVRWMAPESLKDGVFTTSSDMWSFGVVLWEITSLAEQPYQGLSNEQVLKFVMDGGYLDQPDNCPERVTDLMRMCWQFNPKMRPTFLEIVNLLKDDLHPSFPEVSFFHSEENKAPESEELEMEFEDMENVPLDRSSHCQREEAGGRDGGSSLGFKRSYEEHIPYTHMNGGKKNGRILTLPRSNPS

KIT(D816V) = molecular target: T3, KIT(D816V) (Homo sapiens, UniProt P10721, D816V); test: KINOMEscan scanEDGE; format: binding; settings: 20 uM
T3 construct: purchased Eurofins DiscoverX (KINOMEscan; SAFETYscan E/IC50 ELECT)

MAP3K4 = molecular target: T4, MAP3K4 (Homo sapiens, UniProt Q9Y6R4); test: KINOMEscan scanEDGE; format: binding; settings: 20 uM
T4 construct: purchased Eurofins DiscoverX (KINOMEscan; SAFETYscan E/IC50 ELECT)

TGFBR1 = molecular target: T5, TGFBR1 (Homo sapiens, UniProt P36897); test: KINOMEscan scanEDGE; format: binding; settings: 20 uM
T5 construct: purchased Eurofins DiscoverX (KINOMEscan; SAFETYscan E/IC50 ELECT)

VEGFR2 = molecular target: T6, VEGFR2 (Homo sapiens, UniProt P35968); test: KINOMEscan scanEDGE; format: binding; settings: 20 uM
T6 construct: purchased Eurofins DiscoverX (KINOMEscan; SAFETYscan E/IC50 ELECT)

GABAA = test: SAFETYscan Ion Channel; format: cell-based; settings: 10 uM
Method: as §1

GR = molecular target: T7, GR (Homo sapiens, UniProt P04150); test: SAFETYscan NHR Protein Interaction; format: cell-based; set-up: dose or concentration left out as unconfirmed
T7 construct: purchased Eurofins DiscoverX (KINOMEscan; SAFETYscan E/IC50 ELECT)
T7 sequence (P04150 whole entry): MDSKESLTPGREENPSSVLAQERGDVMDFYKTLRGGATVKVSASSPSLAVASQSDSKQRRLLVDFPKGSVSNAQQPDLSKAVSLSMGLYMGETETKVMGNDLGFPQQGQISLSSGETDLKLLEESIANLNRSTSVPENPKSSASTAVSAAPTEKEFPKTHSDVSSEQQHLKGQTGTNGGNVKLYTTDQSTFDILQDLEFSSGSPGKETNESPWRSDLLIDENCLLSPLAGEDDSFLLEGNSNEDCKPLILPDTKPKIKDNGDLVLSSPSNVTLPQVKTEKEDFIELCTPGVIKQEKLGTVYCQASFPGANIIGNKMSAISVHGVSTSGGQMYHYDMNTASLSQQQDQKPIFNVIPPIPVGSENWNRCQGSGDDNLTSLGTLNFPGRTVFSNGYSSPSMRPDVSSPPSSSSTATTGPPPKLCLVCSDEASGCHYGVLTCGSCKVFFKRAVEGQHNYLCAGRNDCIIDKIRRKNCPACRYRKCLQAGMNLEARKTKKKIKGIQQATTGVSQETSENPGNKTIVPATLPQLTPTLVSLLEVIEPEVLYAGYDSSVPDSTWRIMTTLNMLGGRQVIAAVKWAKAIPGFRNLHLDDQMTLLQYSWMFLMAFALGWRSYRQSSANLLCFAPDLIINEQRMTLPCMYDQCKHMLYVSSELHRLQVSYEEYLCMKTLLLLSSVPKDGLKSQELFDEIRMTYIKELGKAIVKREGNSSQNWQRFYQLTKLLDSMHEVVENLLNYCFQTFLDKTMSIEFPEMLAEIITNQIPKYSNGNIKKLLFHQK
Method: as §1

AChE = molecular target: T8, AChE (Homo sapiens, UniProt P22303); test: SAFETYscan Enzymatic; format: biochemical; set-up: dose or concentration left out as unconfirmed; settings: read-out: Max Response (%) (Antagonist)
T8 construct: purchased Eurofins DiscoverX (KINOMEscan; SAFETYscan E/IC50 ELECT)
T8 sequence (P22303 32-614): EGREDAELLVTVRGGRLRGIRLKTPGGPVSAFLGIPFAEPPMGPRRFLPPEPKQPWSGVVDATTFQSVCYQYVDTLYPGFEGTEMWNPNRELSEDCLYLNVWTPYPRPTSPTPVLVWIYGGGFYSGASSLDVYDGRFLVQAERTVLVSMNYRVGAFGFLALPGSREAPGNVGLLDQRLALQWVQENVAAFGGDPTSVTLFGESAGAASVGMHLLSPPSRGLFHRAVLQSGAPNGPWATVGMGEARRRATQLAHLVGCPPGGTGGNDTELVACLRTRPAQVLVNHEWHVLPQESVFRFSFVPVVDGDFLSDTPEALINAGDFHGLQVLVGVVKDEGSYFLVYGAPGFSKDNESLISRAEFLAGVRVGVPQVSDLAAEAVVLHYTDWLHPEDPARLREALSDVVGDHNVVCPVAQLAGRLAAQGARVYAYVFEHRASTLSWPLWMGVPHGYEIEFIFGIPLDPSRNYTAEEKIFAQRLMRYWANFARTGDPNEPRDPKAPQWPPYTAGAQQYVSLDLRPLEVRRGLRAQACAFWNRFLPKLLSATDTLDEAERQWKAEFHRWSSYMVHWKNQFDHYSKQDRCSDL
Method: as §1

COX1 = molecular target: T9, COX1 (Homo sapiens, UniProt P23219); test: SAFETYscan Enzymatic; format: biochemical; set-up: dose or concentration left out as unconfirmed; settings: read-out: Max Response (%) (Antagonist)
T9 construct: purchased Eurofins DiscoverX (KINOMEscan; SAFETYscan E/IC50 ELECT)
Method: as §1

COX2 = molecular target: T10, COX2 (Homo sapiens, UniProt P35354); test: SAFETYscan Enzymatic; format: biochemical; set-up: dose or concentration left out as unconfirmed; settings: read-out: Max Response (%) (Antagonist)
T10 construct: purchased Eurofins DiscoverX (KINOMEscan; SAFETYscan E/IC50 ELECT)
T10 sequence (P35354 18-604): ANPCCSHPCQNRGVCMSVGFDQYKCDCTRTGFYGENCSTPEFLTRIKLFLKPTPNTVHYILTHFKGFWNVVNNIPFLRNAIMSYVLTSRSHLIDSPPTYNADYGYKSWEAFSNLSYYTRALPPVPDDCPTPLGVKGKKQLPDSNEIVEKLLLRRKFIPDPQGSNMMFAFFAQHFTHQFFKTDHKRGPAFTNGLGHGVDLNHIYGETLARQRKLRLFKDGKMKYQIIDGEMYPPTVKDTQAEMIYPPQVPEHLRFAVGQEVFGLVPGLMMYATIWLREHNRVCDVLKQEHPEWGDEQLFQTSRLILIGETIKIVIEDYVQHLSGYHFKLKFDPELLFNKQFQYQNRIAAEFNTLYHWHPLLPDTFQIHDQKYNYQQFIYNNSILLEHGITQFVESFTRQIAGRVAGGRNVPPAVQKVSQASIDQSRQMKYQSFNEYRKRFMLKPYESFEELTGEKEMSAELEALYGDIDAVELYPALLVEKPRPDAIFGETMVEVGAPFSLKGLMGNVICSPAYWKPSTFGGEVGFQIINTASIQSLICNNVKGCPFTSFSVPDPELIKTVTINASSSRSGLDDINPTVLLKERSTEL
Method: as §1

MAOA = molecular target: T11, MAOA (Homo sapiens, UniProt P21397); test: SAFETYscan Enzymatic; format: biochemical; set-up: dose or concentration left out as unconfirmed; settings: read-out: Max Response (%) (Antagonist)
T11 construct: purchased Eurofins DiscoverX (KINOMEscan; SAFETYscan E/IC50 ELECT)
T11 sequence (P21397 whole entry): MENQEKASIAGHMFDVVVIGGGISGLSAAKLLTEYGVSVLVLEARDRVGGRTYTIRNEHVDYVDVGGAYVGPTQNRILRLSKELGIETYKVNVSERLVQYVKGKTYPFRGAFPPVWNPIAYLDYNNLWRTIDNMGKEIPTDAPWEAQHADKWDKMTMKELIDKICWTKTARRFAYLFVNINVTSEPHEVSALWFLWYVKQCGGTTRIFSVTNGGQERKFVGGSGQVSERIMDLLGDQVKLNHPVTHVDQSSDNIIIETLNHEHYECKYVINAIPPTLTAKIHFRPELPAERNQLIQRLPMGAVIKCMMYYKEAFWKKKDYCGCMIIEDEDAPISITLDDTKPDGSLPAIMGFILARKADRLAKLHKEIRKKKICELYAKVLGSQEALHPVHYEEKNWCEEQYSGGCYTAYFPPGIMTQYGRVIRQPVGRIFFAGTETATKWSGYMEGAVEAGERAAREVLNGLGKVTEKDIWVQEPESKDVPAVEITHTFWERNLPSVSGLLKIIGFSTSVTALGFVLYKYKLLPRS
Method: as §1

PDE3A = molecular target: T12, PDE3A (Homo sapiens, UniProt Q14432); test: SAFETYscan Enzymatic; format: biochemical; set-up: dose or concentration left out as unconfirmed; settings: read-out: Max Response (%) (Antagonist)
T12 construct: purchased Eurofins DiscoverX (KINOMEscan; SAFETYscan E/IC50 ELECT)
T12 sequence (Q14432 whole entry): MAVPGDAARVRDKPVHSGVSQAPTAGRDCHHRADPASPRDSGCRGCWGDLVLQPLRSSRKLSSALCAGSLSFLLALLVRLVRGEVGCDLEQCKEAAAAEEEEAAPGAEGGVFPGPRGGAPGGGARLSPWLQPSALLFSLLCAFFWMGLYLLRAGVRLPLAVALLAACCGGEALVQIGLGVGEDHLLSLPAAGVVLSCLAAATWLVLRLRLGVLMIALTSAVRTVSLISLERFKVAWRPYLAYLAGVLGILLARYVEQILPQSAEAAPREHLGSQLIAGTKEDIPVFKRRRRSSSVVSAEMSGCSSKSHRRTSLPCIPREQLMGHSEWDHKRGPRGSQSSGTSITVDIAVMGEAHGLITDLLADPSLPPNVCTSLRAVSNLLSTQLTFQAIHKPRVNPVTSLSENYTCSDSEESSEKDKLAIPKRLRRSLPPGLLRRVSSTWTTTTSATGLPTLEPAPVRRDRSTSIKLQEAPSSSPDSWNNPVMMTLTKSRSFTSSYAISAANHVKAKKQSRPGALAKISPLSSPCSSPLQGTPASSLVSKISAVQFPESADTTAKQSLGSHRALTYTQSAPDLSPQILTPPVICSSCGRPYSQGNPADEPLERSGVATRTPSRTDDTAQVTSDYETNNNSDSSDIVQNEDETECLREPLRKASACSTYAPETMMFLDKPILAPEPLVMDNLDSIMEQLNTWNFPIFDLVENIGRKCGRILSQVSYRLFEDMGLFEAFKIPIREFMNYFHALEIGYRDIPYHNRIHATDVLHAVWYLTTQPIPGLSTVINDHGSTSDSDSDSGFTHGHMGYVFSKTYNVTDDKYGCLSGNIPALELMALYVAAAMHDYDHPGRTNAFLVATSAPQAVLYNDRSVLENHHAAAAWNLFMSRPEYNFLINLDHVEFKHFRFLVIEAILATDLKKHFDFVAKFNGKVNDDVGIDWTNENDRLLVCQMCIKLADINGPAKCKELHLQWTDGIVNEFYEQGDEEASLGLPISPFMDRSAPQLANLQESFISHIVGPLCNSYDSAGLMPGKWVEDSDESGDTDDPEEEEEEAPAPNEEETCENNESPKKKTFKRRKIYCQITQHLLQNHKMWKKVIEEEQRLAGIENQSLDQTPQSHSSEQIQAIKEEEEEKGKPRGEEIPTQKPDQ
Method: as §1

PDE4D2 = molecular target: T13, PDE4D2 (Homo sapiens, UniProt Q08499); test: SAFETYscan Enzymatic; format: biochemical; set-up: dose or concentration left out as unconfirmed; settings: read-out: Max Response (%) (Antagonist)
T13 construct: purchased Eurofins DiscoverX (KINOMEscan; SAFETYscan E/IC50 ELECT)
Method: as §1

For `O=c1ccc(-c2cnc(OCC(F)(F)F)nc2)nn1Cc1cncc(F)c1` [EDG-5506], the pIC50 (mouse TA myofibrils) was 6.40, the “Maximum Inhibition (%)” value (Human Bicep myofibrils; human bicep myofibrils) was 89% and the pIC50 (Human Bicep myofibrils; human bicep, 50% Type I, 50% IIa, IIx) was 5.92. For the same molecule, the pIC50 [1] was less than 5.00, the inhibition at 1 µM ([2]; Mus musculus, at ≤1 μM (near maximal protection), read-out: inhibition of isometric force) was roughly 15% and the “strength drop with repeated lengthening contractions” value ([2]; mdx EDL ex vivo) was “dramatically lowered”. For the same molecule, the “concentration giving near maximal protection from strength drop” value ([2]; mdx EDL, 10 lengthening contractions, 1-hour preincubation) was no more than 1 µM, the “plasma CK activity after in situ injury” value (mdx mice; 1 hour after in situ injury) was “lowered plasma CK activity” and the “postexercise plasma CK” value (mdx mice; 1 hour after rotarod or grip strength tests) was “significantly lower”. For the same molecule, the “muscle repair after cardiotoxin injury” value (healthy mice, TA muscle) was “did not interfere with muscle repair”, the “binding, % of control” value (CSF1R) was 100 % of control and the “binding, % of control” value (INSR) was 96 % of control. For the same molecule, the “binding, % of control” value (KIT(D816V)) was 87 % of control, the “binding, % of control” value (MAP3K4) was 90 % of control and the “binding, % of control” value (TGFBR1) was 100 % of control. For the same molecule, the “binding, % of control” value (VEGFR2) was 77 % of control, the “Max Response (%) (Agonist)” value (GABAA) was 4.91% and the “Max Response (%) (Antagonist)” value (GABAA) was 7.72%. The Emax (GR; read-out: Max Response (%) (Agonist)) was 0.41%, the Max inhibition (antagonist mode) (GR; read-out: Max Response (%) (Antagonist)) was 33.6% and the Emax (AChE) was 16.4%. The Emax (COX1) was 4.78%, the Emax (COX2) was 3.26% and the Emax (MAOA) was 7.79%. For the same molecule, the Emax (PDE3A) was 0.91% and the Emax (PDE4D2) was 7.16%.
